The source of these data is US10440953B2, “Control of pests in maize by ginkgolides and bilobalide” (priority 2015, dated 2019).

Where two headings read alike, the source gives them in different places.

Common to all, as to assay type: in vivo
The test system of series [1] is Nezara viridula. The experiment in a line: Foliar spray of maize plants, mortality of Nezara viridula (Example-1). The conditions noted are these: for mortality at 100 ppm: Nezara viridula, foliar, 72 h. The protocol:
Zea mays plants were grown to growth stage BBCH 12. The maize plants were then sprayed with 300 l/ha of aqueous compositions comprising either no component of the ginkgo tree, 300 ppm of ginkgolide A, or 100 ppm of bilobalide. The plants were then allowed to dry and subsequently infested with five insects (either adult, or 4th instar nymphs) of Nezara viridula. Insects were contained on the plant using mesh organza bags. Three replicates on different plants were made for each measurement. Three days after infestation, the number of live and dead insects was determined. The mean mortality values were gathered in Table D.

For series [2], the system named is Nezara viridula. The experiment in a line: Soil drench on corn, mortality of Nezara viridula (Example-2). The following applies: soil drench 2.5 mg active ingredient per plant, infested 3DAT, measured 7DAT. The protocol:
Ginkgolide A and Bilobalide were each dissolved in a solution of 50 wt % of acetone in water and applied to the soil of corn four days after planting at a rate of 2.5 mg of the active ingredient per plant. Prior to infestation the soil was covered with parafilm to prevent insect exposure to treated soil. Each plant was infested 3DAT with four 4th instar Nezara viridula insects. Insects were contained on the plant using organza fabric bags. Four replicates on different plants were made for each measurement. The mortality of the insects was measured 7DAT. The mean mortality values were gathered in Table E.

In series [3] the test system is Euschistus heros. The series is described as follows: Spray of Agrisure Viptera and Roundoup Ready 2 maize seedlings with bilobalide, control of Euschistus heros (Example-4). The conditions noted are these: for Relative Efficacy 6DAI: Abbott's formula; for No of alive insects 6DAI: ten adult E. heros per plant. The protocol:
(§1) Relative efficacy (E) values were calculated according to Abbot's formula E=[(C−G)/C]×100, wherein C is the percentage of alive insects in untreated controls, and G is the percentage of alive insects in plants treated with components of the ginkgo tree.
(§2) Agrisure™ Viptera and Roundoup Ready™ 2 Zea mays seedlings were sprayed with 1 ml of compositions comprising either no component of the ginkgo tree, or bilobalide at a concentration of 50, 100, or 150 ppm. Plants were allowed to dry and subsequently infested with ten adult insects of Euschistus heros. Three replicate measurement on different plants were made for each measurement. Six days after infestation (6DAI) number of live and dead insects was determined. The mean number of alive insects, as well as the relative efficacy values (E) according to Abbott's formula were gathered in Table G, wherein the number of alive insects in untreated controls (C) was the value of the same plant without the application of bilobalide.

For series [4], the system named is Nezara viridula. The experiment in a line: Corn seed treatment, damage protection against Nezara viridula (Example-3). The following applies: 4th instar N. viridula, assessed 10DAT. As for the experimental part: Ginkgolide A was dissolved in DMSO and applied to corn seeds at rates of 1.0 and 0.5 mg of Ginkgolide A per plant. One seed was planted per pot in a 1:1 mixture of North Carolina loamy sand:sand. Prior to infestation, soil was covered with parafilm to prevent insect exposure to treated soil. After emergence of the plants, each pot was infested with four 4th instar Nezara viridula insects. Insects were contained on the pots using organza fabric bags. Four replicates on different plants were made for each measurement. The mean damage protection of the corn plants was assessed 10DAT in comparison with untreated controls. For plant height, root mass, and root length, evaluation of the damage protection of the plants was carried out for each treatment as the increase from the infested solvent blank (SB) relative to the increase of the uninfested control from the infested solvent blank: (Treatment−Infested SB)/Uninfested SB−Infested SB)×100%. The results of the mean damage protection values were gathered in Table F.

The test system of series [5] is Euschistus heros. The experiment in a line: Spray of Agrisure Viptera and Roundoup Ready 2 maize seedlings with ginkgolide A, control of Euschistus heros (Example-5). The conditions noted are these: for Relative Efficacy 3DAI: Abbott's formula; for No of alive insects 3DAI: ten adult E. heros per plant. The protocol:
as §1, §2
Three days after infestation (3DAI) number of live and dead insects was determined. The mean number of alive insects, as well as the relative efficacy values (E) according to Abbott's formula were gathered in Table H, wherein the number of alive insects in untreated controls (C) was the value of the same plant without the application of ginkgolide A.

Where [6] appears, read: Agrisure Viptera maize, 50 ppm bilobalide.
The mark [7] stands for this setting: Agrisure Viptera maize, 100 ppm bilobalide.
[8] abbreviates: Agrisure Viptera maize, 150 ppm bilobalide.
Where [9] appears, read: Roundoup Ready 2 maize, 50 ppm bilobalide.
The mark [10] stands for this setting: Roundoup Ready 2 maize, 100 ppm bilobalide.
The mark [11] stands for this setting: Roundoup Ready 2 maize, 150 ppm bilobalide.
Setting [12] is: Agrisure Viptera maize, 10 ppm ginkgolide A.
The mark [13] stands for this setting: Agrisure Viptera maize, 250 ppm ginkgolide A.
[14] abbreviates: Roundoup Ready 2 maize, 10 ppm ginkgolide A.
Setting [15] is: Roundoup Ready 2 maize, 250 ppm ginkgolide A.

What is called mortality is the percentage killed. Take `CC(C)(C)[C@]1(O)C[C@@H]2OC(=O)C[C@@]23C(=O)O[C@@H]2OC(=O)[C@H](O)[C@]213` [Bilobalide, (3aS,5aR,8aS,9R,10aR)-9-tert-butyl-8,9-dihydroxydihydro-9H-furo[2,3-b]furo[3′,2′;2,3]cyclopenta[1,2-c]furan-2,4,7(3H,8H)-trione]: the mortality at 100 ppm in the series on Nezara viridula [1] (read-out: Mortality of 4th instar nymphs) is 84.6%; in the series with Nezara viridula [1] (read-out: Mortality of Adults), 33.3%. Further, the “Mortality of 4th instar nymphs relative to untreated control” value with Nezara viridula [2] was determined as 85%. In addition, the “Relative Efficacy 6DAI” value with Euschistus heros [3] (setting [6]) is listed as 92%; in the series with Euschistus heros [3] (setting [7]), 96%; in the series with Euschistus heros [3] (setting [8]) it was 100%; with Euschistus heros [3] (setting [9]), 83%; in the series on Euschistus heros [3] (setting [10]), 89%; in the series with Euschistus heros [3] (setting [11]), 94%. The “No of alive insects 6DAI” value in the series on Euschistus heros [3] (setting [6]) is on record as 0.7; in the series on Euschistus heros [3] (setting [7]) it was 0.3; in the series on Euschistus heros [3] (setting [8]) it was 0.0; in the series on Euschistus heros [3] (setting [9]), 1.0; in the series on Euschistus heros [3] (setting [10]) it was 0.7; with Euschistus heros [3] (setting [11]), 0.3.

Consider `C[C@@H]1C(=O)O[C@H]2C[C@@]34[C@H]5C[C@@H](C(C)(C)C)[C@]36[C@@H](OC(=O)[C@@H]6O)O[C@@]4(C(=O)O5)[C@]21O` [Ginkgolide A], for which, in the series with Nezara viridula [1] (300 ppm ginkgolide A, 300 l/ha spray on Zea mays BBCH 12, 4th instar N. viridula, three days after infestation), the “Mortality of 4th instar nymphs” value is listed as 61.5%. In addition, the “Mortality of Adults” value in the series on Nezara viridula [1] (300 ppm ginkgolide A, 300 l/ha spray on Zea mays BBCH 12, adult N. viridula, three days after infestation) is recorded as 20.0%. Also, the “Mortality of 4th instar nymphs relative to untreated control” value in the series with Nezara viridula [2] is reported as 100%. Besides, the Mean damage protection worked out at 64% in the series with Nezara viridula [4] (seed treatment 0.5 mg/seed) and 77% in the series with Nezara viridula [4] (seed treatment 1.0 mg/seed). Besides, the “Relative Efficacy 3DAI” value stood at 38% with Euschistus heros [5] (setting [12]), 35% in the series on Euschistus heros [5] (setting [13]), 14% in the series on Euschistus heros [5] (setting [14]) and 21% with Euschistus heros [5] (setting [15]). Moreover, the “No of alive insects 3DAI” value in the series on Euschistus heros [5] (setting [12]) turned out to be 5.3; with Euschistus heros [5] (setting [13]), 5.7; in the series on Euschistus heros [5] (setting [14]), 8.3; with Euschistus heros [5] (setting [15]), 7.7.
